Common to all, as to test: inhibition of tumour cell growth, NCI panel, 48 h
The test system of assay [1] is U251 CNS.
Assay [2] has as its system CCRF-CEM leukemia.
For assay [3], the system named is HOP-92 NSCLC.
In assay [4] the test system is NCI-H522 lung.
The subject of assay [5] is MOLT-4 leukemia.
Assay [6] relates to A549 NSCLC.
The subject of assay [7] is EKVX NSCLC.
For assay [8], the system named is IGROV1 ovarian.
Assay [9] has as its system M14 melanoma.

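Interpolation was linear, between the two tested concentrations surrounding the appropriate level; five concentrations were tested over 48 hours in 96-well plates. At the GI50, growth is halved. The concentration for full growth arrest is given as TGI.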

On to `CC(C)C[C@@H]1NC(=O)[C@@H]2CCCN2C(=O)[C@@H]2CCCN2C(=O)[C@H](CC(C)C)NC(=O)[C@H](CO)NC(=O)[C@H](CCCCN)NC(=O)[C@H]([C@H](C)O)NC(=O)[C@@H]2CCCC[C@@H](NC1=O)C(=O)N[C@@H](Cc1ccccc1)C(=O)N1CCC[C@H]1C(=O)N[C@@H](CC(=O)O)C(=O)NCC(=O)N[C@@H](CCCN=C(N)N)C(=O)N2`, for which the GI50 in assay [1], in assay [2], in [3], in [4], in [5] and in [6] was greater than 50 µM each time. The GI50 in assay [7] and in assay [8] was greater than 50 µM each time. Also, the TGI in assay [1], in assay [2], in assay [3], in assay [4], in [5] and in assay [6] was greater than 50 µM in each case. Also, the TGI in assay [7] and in assay [8] was greater than 50 µM throughout.
Regarding `CC(C)CCc1c(Cl)nc(Cl)nc1Cl`, the TGI in assay [1] is 24.4 µM; in assay [2], greater than 100 µM; in [4], 9.89 µM; in assay [5], greater than 100 µM; in assay [9], 15.3 µM; in assay [6] it was 54.9 µM. For the same compound, the results for the TGI in [7] and in assay [8] were 63.2 µM and 37.5 µM, respectively.
As for `COc1ccc2nc(C)cc(Nc3ccccc3O)c2c1`, the GI50 is 17.6 µM in [1]; 21.7 µM in [2]; 10.9 µM in assay [3]; 45.2 µM in assay [4]; 24.8 µM in assay [5]; 17.6 µM in assay [9]. Further, the GI50 in assay [6] was 38 µM; in assay [8], 31.4 µM. Further, the TGI in assay [1] was 35.3 µM; in [2] it was greater than 100 µM; in assay [3], 61.2 µM; in [4], greater than 100 µM; in assay [5], 78.6 µM; in assay [9], 45.8 µM. Besides, the TGI in assay [6] and in [8] was greater than 100 µM in each case.
`Cc1ccc(/C=C2\CCCC\C2=N\O)cc1`: the TGI in [1], in assay [2], in [9], in [6], in [7] and in assay [8] was greater than 100 µM in each case.
As to `C=CCN=C1NC(=O)C(CC(=O)Nc2ccc(C)cc2)S1` (centres undefined), the TGI in assay [1], in [2], in assay [4], in assay [5], in assay [9] and in assay [6] was greater than 100 µM each time. Further, the TGI in assay [7] and in assay [8] was greater than 100 µM throughout.
Turning to `COc1cc(C(=O)CC2(O)C(=O)Nc3c(Cl)cc(Cl)cc32)ccc1O` (centres undefined), the TGI in assay [1], in assay [2], in assay [3], in assay [4], in assay [5] and in assay [9] was greater than 100 µM each time. Besides, the TGI in [6] and in [7] was greater than 100 µM each time.
As to `N#C[S-].[Au+].c1ccc(CN2[CH-]N(Cc3ccccc3)C(c3ccccc3)=C2c2ccccc2)cc1`, in assay [3], the GI50 is 0.292 µM and the TGI worked out at 1 µM. Also, in assay [6], the GI50 is 0.593 µM and the TGI stood at 3.24 µM.
Turning to `O=C1C[C@@H]2CCCC[C@@H]2C12SCCS2`, the TGI in assay [1], in assay [2], in assay [4], in assay [5], in assay [6] and in assay [7] was greater than 100 µM in each case. The TGI in [8] was greater than 100 µM.
As for `O=C1/C(=C/c2ccc(Cl)cc2)COc2ccc(O)c(O)c21`, the GI50 in [1] was 0.731 µM; in [3] it was 2.01 µM; in assay [4], 0.182 µM; in assay [5] it was 0.618 µM; in [9] it was 1.92 µM; in assay [6], 1.79 µM. For the same compound, the GI50 in [7] was 1.49 µM; in [8], 0.438 µM. Further, the TGI in [1] is 2.06 µM; in assay [3], 8.77 µM; in assay [4], 0.426 µM; in assay [5], greater than 100 µM; in [9], 4.77 µM; in assay [6] it was 4.77 µM. The TGI in [7] amounted to 3.19 µM; in [8], 2.16 µM.
As for `COc1cc2cccc(NC(=O)c3cc(OC)c(OC)c(OC)c3Br)c2cc1OC`, the TGI in [1] is 78.9 µM; in assay [2], 21.5 µM; in [4], 42.1 µM; in [5] it was 8.81 µM; in assay [9], 23.5 µM; in [6] it was 46 µM. Besides, the results for the TGI in assay [7] and in assay [8] were 75.9 µM and 44.6 µM, respectively.
As for `COc1cc([N+](=O)[O-])c(OC)cc1-c1nc2sc(Cl)cn2c1/C=N/NC(=N)N/N=C/c1c(-c2cc(OC)c([N+](=O)[O-])cc2OC)nc2sc(Cl)cn12`, in assay [9], the GI50 is 1.91 µM and the TGI came out at 3.36 µM.

These data come from PubChem BioAssay (NCI).
